Test results: patent US10745397B2, “1-Substituted 1,2,3,4-tetrahydro-1,7-naphthyridin-8-amine derivatives and their use as EP4 receptor antagonists” (TAKEDA PHARMACEUTICAL COMPANY LIMITED, priority 2015, dated 2020)

Key:
[1] = molecular target: T1, human EP4 receptor (Homo sapiens, UniProt P35408); assay: hEP4 radioligand binding assay ([3H] PGE2 competitive binding, membrane fractions); conditions: 1 nM [3H] PGE2; for inhibition at 0.3 µM: 300 nM compound; for inhibition at 1 µM: 1 μM compound
T1 construct: expressed in transfected cells; host or cells: FreeStyle293 (HEK293F) cells, transient transfection with pcDNA3.1(+), total membrane fraction
T1 sequence (P35408 whole entry): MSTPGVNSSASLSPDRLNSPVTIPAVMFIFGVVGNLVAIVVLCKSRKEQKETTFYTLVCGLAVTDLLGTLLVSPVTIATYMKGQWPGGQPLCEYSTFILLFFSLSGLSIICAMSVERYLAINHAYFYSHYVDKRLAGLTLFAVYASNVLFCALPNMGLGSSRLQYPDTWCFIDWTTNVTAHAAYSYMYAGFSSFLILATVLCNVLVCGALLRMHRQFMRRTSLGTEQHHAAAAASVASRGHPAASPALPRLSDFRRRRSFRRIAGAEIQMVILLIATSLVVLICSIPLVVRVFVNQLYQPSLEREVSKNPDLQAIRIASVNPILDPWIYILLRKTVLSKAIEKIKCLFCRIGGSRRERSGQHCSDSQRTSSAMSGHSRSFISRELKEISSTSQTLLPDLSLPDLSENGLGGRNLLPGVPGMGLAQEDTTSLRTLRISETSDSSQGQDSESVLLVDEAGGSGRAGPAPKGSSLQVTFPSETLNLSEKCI
Description: The full-length coding sequences for human EP1 (NM_000955), human EP2 (NM_000956), human EP3 (NM_198717) and human EP4 (NM_000958) were cloned into pcDNA3.1(+) vector (Life Technologies, CA, USA). In order to prepare overexpressed EP 1-4 membrane in Freestyle293 cells (Life Technologies, CA, USA), the pcDNA3.1(+) vector encoding a cDNA of the relevant gene was transiently transfected into FreeStyle293 cells using 293Fectin (Life Technologies, CA, USA) according to the manufacturer instruction manual. After 2 days, cultured cells were centrifuged (1,000×g, 10 min, 4° C.) and pellets homogenized by a probe sonicator (Sonics vibracell, Sonics and Materials Inc., USA; 31% Amp, 5 sec pulse, Imin interval, 4 cycles) in ice-cold 50 mM Tris-HCl buffer (pH 7.5 at 25° C.) containing 0.5 mM EDTA, 250 mM Sucrose and 10 mM MgCl2. Cell homogenates were centrifuged (890×g, 10 min, 4° C.), and the supernatant was recovered. Total membrane fractions were isolated by ultracentrifugation (140,000×g, 60 min, 4° C.). Pellets were re-suspended in the same buffer, and stored at −80° C. until use. The protein concentration in homogenate was determined with the BCA Protein Assay Kit (Pierce Biotechnology, Inc., IL, USA) according to the manufacturer protocol.
The binding affinity of the compounds was evaluated using a competitive radioligand binding assay which measured the specific binding of [3H] PGE2 to the human EP4 receptor. Briefly, varying concentrations of NCEs were incubated with cell membrane fractions generated HEK293F cells transiently transfected with human EP4 receptor as described above. Each reaction consisted of 10 μg membrane protein and NCE in 50 mM Tris-HCl, pH-6.0 by NaOH, 10 mM MgCl2 and 0.5 mM EDTA assay buffer. Radioligand, [3H] PGE2 (American Radiochemicals Inc. Specific Activity 180 Ci/mmol), at a final of 1 nM was added to each reaction where the final assay volume was 200 μL and concentration of DMSO was adjusted to 1%. Appropriate controls included total binding in the assay (vehicle control) and control for non-specific binding. Non-specific binding was evaluated by incubating the hEP4 protein with 10 μM unlabeled PGE2 under the same assay conditions as NCEs. The reaction was incubated at room temperature for 2 hours and terminated by harvesting the reaction contents to a PEI coated GF/C filter plate (PerkinElmer). The plate was washed four times with cold 50 mM Tris-HCl, pH-7.5 wash buffer and dried at 50° C. for 2 hours or at 37° C. overnight. [3H] PGE2 bound to the protein was quantified by the addition of 25 μL of Microscint PS (PerkinElmer) and plate was read on MicroBeta2 liquid Scintillation and luminescence counter (PerkinElmer). Data was analyzed using GraphPad Prism 5 (GraphPad Software Inc., San Diego, Calif.) where non-specific binding was normalized to 0% specific binding of [3]PGE2 and vehicle control (DMSO) was normalized to 100% specific binding of [3]PGE2. Binding affinity of NCEs, Ki, was generated using One site—Fit Ki equation in GraphPad Prism 5.

[2] = molecular target: T2, hEP4 (C6 glioma cells overexpressing hEP4) (Homo sapiens, UniProt P35408); assay: hEP4 cell based assay (cAMP), inhibition of PGE2 induced cAMP, HTRF; conditions: 1 μM compound, PGE2 at EC80
T2 construct: host or cells: C6 glioma cells overexpressing hEP4
T2 sequence (P35408 whole entry): as above
Description: The functional assay for hEP4 activation and inhibition was carried out via the quantitative determination of agonist, PGE2, induced cAMP response using HTRF in a competitive immunoassay (Cisbio dynamic 2 kit). NCEs at varying concentrations were evaluated for inhibition of PGE2 induced increase in cAMP. Briefly, C6 glioma cells overexpressing hEP4 (Takeda) were cultured in DMEM (low glucose, pyruvate), 10% FBS (Gibco) and PenStep. The cells were harvested on the day of the assay, washed with HBSS+10 mM HEPES (pH 7.4)+0.1% BSA buffer and pre-incubated with varying concentrations of NCE. Each reaction contained 7000 cells and NCEs in HBSS+10 mM HEPES+0.1% BSA assay buffer along with PDE inhibitors IBMX and Ro 20-1724 (final concentration of each inhibitor […]). Following 15 min pre-incubation, the cells were treated with EC80 concentration of agonist PGE2 for 30 min to induce cAMP. Final volume of the assay was 6 μL and DMSO concentration was maintained at 1%. The reaction was terminated with the addition of cAMP labeled with the dye d2 in lysis buffer according to manufacturers' protocol. This was followed by the addition of the anti-cAMP antibody labeled with Cryptate according to the manufacturers' protocol. The reaction was incubated at room temperature in dark for 45 min and the plate was evaluated for fluorescence at 665 nm (FRET) and 620 nm (cryptate emission) on a Flexstation III microplate reader (Molecular Devices, Sunnyvale, Calif.) Ex max: 313 nm; Em1: 620 nm; Em2: 665 nm. Data was analyzed using GraphPad Prism 5 (GraphPad Software Inc., San Diego, Calif.) where cells treated with agonist (EC80) was normalized to 0% inhibition of hEP4 and cells treated with buffer (no agonist) was normalized to 100% inhibition of hEP4. IC50 of NCEs was generated using non-linear regression—Log(inhibitor) vs. response equation in GraphPad Prism 5.

Compound | inhibition at 0.3 µM [1] [%] | inhibition at 1 µM [1] [%] | inhibition at 1 µM [2] [%]
C[C@H](Nc1nccc2c1N(Cc1ccccc1)CCO2)c1ccc(C(=O)O)cc1 [Example B1, 4-[(1S)-1-[(4-Benzyl-2,3-dihydropyrido[4,3-b][1,4]oxazin-5-yl)amino]ethyl]benzoic acid] | 93 |  | 100
C[C@H](Nc1nccc2c1N(CCOc1ccc(F)cc1)CCO2)c1ccc(C(=O)O)cc1 [Example B3, 4-[(1S)-1-[[4-[2-(4-Fluorophenoxy)ethyl]-2,3-dihydropyrido[4,3-b][1,4]oxazin-5-yl]amino]ethyl]benzoic acid] | 81 |  | 90
C[C@H](Nc1nccc2c1N(Cc1ccccn1)CCO2)c1ccc(C(=O)O)cc1 [Example B27, 4-[(1S)-1-[[4-(2-pyridylmethyl)-2,3-dihydropyrido[4,3-b][1,4]oxazin-5-yl]amino]ethyl]benzoic acid] | 42 |  | 
C[C@H](Nc1nccc2c1N(Cc1cccnc1)CCO2)c1ccc(C(=O)O)cc1 [Example B28, 4-[(1S)-1-[[4-(3-pyridylmethyl)-2,3-dihydropyrido[4,3-b][1,4]oxazin-5-yl]amino]ethyl]benzoic acid] | 49 |  | 
C[C@H](Nc1nccc2c1N(Cc1cccc(Cl)c1)CCN2C)c1ccc(C(=O)O)cc1 [Example B34, 4-[(1S)-1-[[4-[(3-chlorophenyl)methyl]-1-methyl-2,3-dihydropyrido[3,4-b]pyrazin-5-yl]amino]ethyl]benzoic acid] | 42.5 |  | 
C[C@H](Nc1nccc2c1N(Cc1ccc(C(F)(F)F)cc1)CCN2C)c1ccc(C(=O)O)cc1 [Example B35, 4-[(1S)-1-[[1-methyl-4-[[4-(trifluoromethyl)phenyl]methyl]-2,3-dihydropyrido[3,4-b]pyrazin-5-yl]amino]ethyl]benzoic acid] | 42.4 |  | 
C[C@H](Nc1ncnc2c1N(Cc1cccc(Cl)c1)CCO2)c1ccc(C(=O)O)cc1 [Example B38, 4-[(1S)-1-[[5-[(3-chlorophenyl)methyl]-6,7-dihydropyrimido[4,5-b][1,4]oxazin-4-yl]amino]ethyl]benzoic acid] | 88 |  | 
Cc1noc(C)c1CN1CCOc2ccnc(N[C@@H](C)c3ccc(C(=O)O)cc3)c21 [Example B41, 4-[(1S)-1-[[4-[(3,5-dimethylisoxazol-4-yl)methyl]-2,3-dihydropyrido[4,3-b][1,4]oxazin-5-yl]amino]ethyl]benzoic acid] | 47 |  | 
C[C@H](Nc1ncc(C2CC2)c2c1N(Cc1cccc(C(F)(F)F)c1)CCO2)c1ccc(C(=O)O)cc1 [Example B47, 4-[(1S)-1-[[8-cyclopropyl-4-[[3-(trifluoromethyl)phenyl]methyl]-2,3-dihydropyrido[4,3-b][1,4]oxazin-5-yl]amino]ethyl]benzoic acid] | 60 |  | 

More lines, now with the values ahead:

inhibition at 0.3 µM [1] [%] | inhibition at 1 µM [1] [%] | inhibition at 1 µM [2] [%] | Compound
12 |  |  | COC(=O)c1ccc([C@H](C)Nc2ncnc3c2N(Cc2cccc(Cl)c2)C(=O)CO3)cc1 [Example A46, methyl 4-[(1S)-1-[[5-[(3-chlorophenyl)methyl]-6-oxo-pyrimido[4,5-b][1,4]oxazin-4-yl]amino]ethyl]benzoate]
12 |  |  | COC(=O)c1ccc(C2(Nc3nccc4c3N(Cc3ccc(F)c(F)c3)C(=O)CO4)CC2)cc1 [Example A47, methyl 4-[1-[[4-[(3,4-difluorophenyl)methyl]-3-oxopyrido[4,3-b][1,4]oxazin-5-yl]amino]cyclopropyl]benzoate]
28 |  |  | COC(=O)c1ccc([C@H](C)Nc2nccc3c2N(C(=O)c2ccc(C(F)(F)F)cc2)CCO3)cc1 [Example A48, methyl 4-[(1S)-1-[[4-[4-(trifluoromethyl)benzoyl]-2,3-dihydropyrido[4,3-b][1,4]oxazin-5-yl]amino]ethyl]benzoate]
17 |  |  | COc1ccc(CNc2nccc3c2N(Cc2ccc(F)c(F)c2)CCO3)cc1 [Example A49, 4-[(3,4-difluorophenyl)methyl]-N-[(4-methoxyphenyl)methyl]-2,3-dihydropyrido[4,3-b][1,4]oxazin-5-amine]
26 |  |  | Cc1cccnc1CNc1nccc2c1N(Cc1ccc(F)c(F)c1)CCO2 [Example A50, 4-[(3,4-difluorophenyl)methyl]-N-[(3-methyl-2-pyridyl)methyl]-2,3-dihydropyrido[4,3-b][1,4]oxazin-5-amine]
 | 29 |  | Fc1ccc(CN2CCOc3ccnc(NCC4CCCCC4)c32)cc1F [Example A51, N-(cyclohexylmethyl)-4-[(3,4-difluorophenyl)methyl]-2,3-dihydropyrido[4,3-b][1,4]oxazin-5-amine]
74 |  | 100 | C[C@H](Nc1nccc2c1N(Cc1ccc(C(F)(F)F)cc1)CCO2)c1ccc(C(=O)O)cc1 [Example B5, 4-[(1S)-1-[[4-[[4-(trifluoromethyl)phenyl]methyl]-2,3-dihydropyrido[4,3-b][1,4]oxazin-5-yl]amino]ethyl]benzoic acid]
89 |  | 100 | C[C@H](Nc1nccc2c1N(Cc1ccc(F)c(F)c1)CCO2)c1ccc(C(=O)O)cc1 [Example B6, 4-[(1S)-1-[[4-[(3,4-difluorophenyl)methyl]-2,3-dihydropyrido[4,3-b][1,4]oxazin-5-yl]amino]ethyl]benzoic acid]
99 |  | 100 | C[C@H](Nc1nccc2c1N(Cc1ccc(Cl)cc1)CCO2)c1ccc(C(=O)O)cc1 [Example B7, 4-[(1S)-1-[[4-[(4-chlorophenyl)methyl]-2,3-dihydropyrido[4,3-b][1,4]oxazin-5-yl]amino]ethyl]benzoic acid]
49 |  |  | C[C@H](Nc1nccc2c1N(Cc1ccc(C(F)(F)F)cc1)C(=O)CS2)c1ccc(C(=O)O)cc1 [Example B36, 4-[(1S)-1-[[3-oxo-4-[[4-(trifluoromethyl)phenyl]methyl]pyrido[4,3-b][1,4]thiazin-5-yl]amino]ethyl]benzoic acid]
0.3 | 26 |  | C[C@H](Nc1nccc2c1N(Cc1ccc(F)c(F)c1)C(=O)CS2)c1ccc(C(=O)O)cc1 [Example B42, 4-[(1S)-1-[[4-[(3,4-difluorophenyl)methyl]-3-oxopyrido[4,3-b][1,4]thiazin-5-yl]amino]ethyl]benzoic acid]
10 |  |  | C[C@H](Nc1nccc2c1N(Cc1cccc(Cl)c1)C(=O)CS2)c1ccc(C(=O)O)cc1 [Example B43, 4-[(1S)-1-[[4-[(3-chlorophenyl)methyl]-3-oxopyrido[4,3-b][1,4]thiazin-5-yl]amino]ethyl]benzoic acid]
